Experimental data published in article PMC8234462, “Novel Cyclophilin Inhibitor Decreases Cell Proliferation and Tumor Growth in Models of Hepatocellular Carcinoma” (Cancers, 2021).
“Also recorded” adds a separate entry of the source.

Key:
Dendritic cells = experiment: Cytotoxicity, CellTiter Glo; format: cell-based; conditions: Homo sapiens, Dendritic cell, 168 h, 7 days of treatment, read-out: IC50 (50% reduction in cell viability)
Method: The evaluation of the off-target effects of NV651 was performed by ImQuest BioSciences Inc. (Frederick, MD, USA) by analyzing the cytotoxicity in a panel of primary cells. NV651 was evaluated at a concentration of 30 µM and five serial half-logarithmic dilutions in triplicate. The positive control compounds for each cell type were purchased from Sigma-Aldrich (St. Louis, MO, USA) and were as follows: Unstimulated human peripheral blood mononuclear cells (PBMCs), phytohemagglutinin (PHA)-stimulated PBMCs, monocytes/macrophages, dendritic cells, hepatocytes, induced pluripotent stem cell (iPS) neurons: […] AZT, kidney cells (RPTEC): cisplatin and iPS cardiomyocytes: Doxazosin. The isolation was based on Nair, Archer. Briefly, freshly separated PBMCs from one donor were suspended in DPBS at 4 × 10^6 cells per mL and cultured in a T-75 flask. Cells were incubated for 30 min and then washed 5–7 times with DPBS to remove nonadherent cells. Cells were cultured in RPMI 1640 supplemented with 10% FBS, 2-mM L-glutamine, 25-mM HEPES, […], 100-µg/mL streptomycin, 50-ng/mL rhGM-CSF and 50-ng/mL rhIL-4 and incubated for 7 days. After the incubation period, cells were cultured in the same media with the addition of LPS (10 ng/mL) for two days. […]

[1] = In vivo toxicity, body weight; conditions: BALB/c nude mice; 25, 50 or 200 mg/kg daily IP for 5 days
Method: All the procedures related to animal handling, care and the treatment in this study were performed according to the guidelines approved by the Institutional Animal Care and Use Committee (IACUC) of Shanghai ChemPartner Ltd. (Shanghai, China) following the guidance of the Association for Assessment and Accreditation of Laboratory Animal Care (AAALAC). BALB/c nude mice were kept in individual ventilation cages at a constant temperature and humidity, with 5 animals in each cage. Animals had free access to irradiation-sterilized dry granule food during the entire study period and water. BALB/c nude mice between 6–8 weeks were treated with either 25, 50 or 200 mg/kg dissolved in 25% buffered beta OH cyclodextrin (n = 5 mice per treatment). Daily doses were given intraperitoneally (IP) for 5 days. Mice were weighted daily until the 6th day.

HEPG2 [2] = experiment: Phospho-Histone 3 (PH3) staining; format: cell-based, human; conditions: 10 or 100 nM, 24 h
Method: (§1) For the quantification of mitotic cells, HEPG2 cells were seeded in a 6-well plate at a concentration of 1.5 × 10^5 cells/well and HUH7 at 1 × 10^5 cells/well in a 6-well plate. Both cells lines were treated with 10 or 100 nM of NV651 or the equivalent volume of DMSO. Samples were fixed for HEPG2 at 24 h and for HUH7 at 48 h of treatment, as described above. Permeabilization was performed by adding 0.25% Tween20 (Sigma-Aldrich, Cat# P1379-500ML, St. Louis, MO, USA) diluted in PBS. Samples were stained with primary antibody mouse anti-PH3 (Merck Millipore, Cat# 05-806, Burlington, MA, USA) at a dilution of 1/100 overnight at 4 °C and with the secondary antibody goat anti-Mouse IgG AF488 conjugated (Life technologies, Cat# A11029, Carlsbad, CA, USA) for 1 h at room temperature. After washing, 1-µg/mL DAPI was added for the staining of the DNA content.
(§2) Data was acquired with FACSverse Instrument and analyzed with FCS Express 6 Flow Research.

HUH7 [3] = experiment: Phospho-Histone 3 (PH3) staining; format: cell-based, human; conditions: 10 or 100 nM, 48 h
Method: as §1, §2

Bone marrow progenitors = experiment: Cytotoxicity, colony formation; format: cell-based, human; conditions: Homo sapiens, 336 h, 14 days of treatment, colonies counted
Method: The evaluation of the off-target effects of NV651 was performed by ImQuest BioSciences Inc. (Frederick, MD, USA) by analyzing the cytotoxicity in a panel of primary cells. NV651 was evaluated at a concentration of 30 µM and five serial half-logarithmic dilutions in triplicate. The positive control compounds for each cell type were purchased from Sigma-Aldrich (St. Louis, MO, USA) and were as follows: Unstimulated human peripheral blood mononuclear cells (PBMCs), phytohemagglutinin (PHA)-stimulated PBMCs, monocytes/macrophages, dendritic cells, hepatocytes, induced pluripotent stem cell (iPS) neurons: […] AZT, kidney cells (RPTEC): cisplatin and iPS cardiomyocytes: Doxazosin. Bone marrow progenitor cells (Invitrogen, Waltham, MA, USA) were suspended in cell culture medium (Iscove-modified Dulbecco medium) containing 15% FBS, 10% giant tumor-conditioned medium (Bone Marrow Plus, Sigma-Aldrich, St. […] Cells (1 × 10^5 cells/well) were seeded in 6-well plates containing NV651 in triplicate. Cells were incubated for 14 days, and colonies (more than 30 cells) were counted.

HEPG2 [4] = experiment: Mitochondrial membrane potential (DiOC(6)3) and PI fluorocytometry; format: cell-based, human; conditions: 72 h, 20, 50 or 100 nM
Method: (§3) HEPG2 and HUH7 cells were seeded at 1.5 × 10^5 cells/well and 1 × 10^5 cells/well, respectively, 24 h prior to treatment. After 72 h of treatment (0, 20, 50 or 100 nM of NV651), supernatant and trypsinized cells were collected and stained with propidium iodide (PI) (Thermo Fisher Scientific, Waltham, MA, USA) at a concentration of 1 μg/mL to evaluate the plasma membrane integrity; due to the lack of cell permeability, only dead cells are able to incorporate it. In addition, changes in the mitochondrial membrane potential were evaluated by 3,3′-dihexyloxacarbocyanine iodide (DiOC(6)3)(Molecular Probes–Invitrogen, Waltham, MA, USA) staining at a concentration of 40 nM.
as §2

HUH7 [5] = experiment: as above; format: cell-based, human; conditions: 72 h, 20, 50 or 100 nM
Method: as §3, §2

CC(=O)CCC1C(=O)NC(C(C)C)C(=O)NC(Cc2cc(O)cc(F)c2)C(=O)N2CCCC(N2)C(=O)OC(C(C)=CC=CC(=O)OC(C)(C)C)CC=CC=CC(O)C(C)C1O (stereo not shown) [NV651]
IC50 (Dendritic cells): 24.2 µM | body weight change [1]: no significant weight loss or other clinical signs; also recorded: no body weight losses | fraction of cells positive for the phosphorylation of histone 3 (PH3) (HEPG2 [2]): increased | fraction of cells positive for the phosphorylation of histone 3 (PH3) (HUH7 [3]): increased | IC50 (Bone marrow progenitors): > 30 µM | changes in mitochondrial membrane potential (DiOC6(3)) and plasma membrane integrity (PI) (HEPG2 [4]): did not show any significant differences | changes in mitochondrial membrane potential (DiOC6(3)) and plasma membrane integrity (PI) (HUH7 [5]): did not show any significant differences
